Reference: patent US8247377B2, “Non-steroidal glucocorticoid inhibitors and their use in treating inflammation, allergy and auto-immune conditions” (Glaxo Group Limited, priority 2006, dated 2012)

These compounds were tested against T1, glucocorticoid receptor (Homo sapiens, UniProt P04150) (assay: Glucocorticoid receptor binding assay (fluorescence polarisation)). Details: competition with Alexa 555 fluorescently-labelled dexamethasone derivative, full length glucocorticoid receptor; read-out: glucocorticoid binding pIC50 (converted).
T1 construct: a partially purified full length glucocorticoid receptor
T1 sequence (P04150 1-777): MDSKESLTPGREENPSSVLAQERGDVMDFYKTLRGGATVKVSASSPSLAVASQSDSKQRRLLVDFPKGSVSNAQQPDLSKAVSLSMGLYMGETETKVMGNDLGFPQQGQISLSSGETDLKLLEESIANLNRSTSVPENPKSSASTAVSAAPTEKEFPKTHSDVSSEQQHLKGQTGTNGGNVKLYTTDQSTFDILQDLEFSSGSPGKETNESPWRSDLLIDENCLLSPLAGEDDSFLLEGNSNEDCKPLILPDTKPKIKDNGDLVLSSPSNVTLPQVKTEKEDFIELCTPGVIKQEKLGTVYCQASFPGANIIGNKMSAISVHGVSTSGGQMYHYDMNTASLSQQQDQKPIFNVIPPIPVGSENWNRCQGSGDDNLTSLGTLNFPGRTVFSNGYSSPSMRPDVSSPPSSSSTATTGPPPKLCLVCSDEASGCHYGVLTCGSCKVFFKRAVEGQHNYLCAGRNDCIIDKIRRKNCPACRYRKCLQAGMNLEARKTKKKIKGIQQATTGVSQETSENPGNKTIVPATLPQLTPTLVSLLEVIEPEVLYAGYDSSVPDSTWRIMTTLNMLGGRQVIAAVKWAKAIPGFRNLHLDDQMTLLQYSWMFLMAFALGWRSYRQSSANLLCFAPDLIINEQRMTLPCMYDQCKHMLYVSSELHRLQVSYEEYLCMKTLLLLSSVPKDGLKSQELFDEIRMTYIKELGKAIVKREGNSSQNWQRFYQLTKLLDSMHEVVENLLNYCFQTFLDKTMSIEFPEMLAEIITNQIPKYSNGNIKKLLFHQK
Method in brief: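 Compounds in DMSO incubated with fluorescent dexamethasone and partially purified full-length GR plus stabilising buffer components, 2 hrs at room temperature in the dark. Displacement read as decrease in fluorescence polarisation; pIC50 estimated from dose-response curves.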
`CN(CC(O)(CNC(=O)c1cnn(-c2ccc(F)cc2)c1N)C(F)(F)F)C(=O)c1c(Cl)cccc1Cl` (racemic) [Example 1 (racemic), 5-Amino-N-(2-{[[(2,6-dichlorophenyl)carbonyl](methyl)amino]methyl}-3,3,3-trifluoro-2-hydroxypropyl)-1-(4-fluorophenyl)-1H-pyrazole-4-carboxamide] gave an IC50 of no more than 0.316 µM. Work on `CCN(CC(O)(CNC(=O)c1cnn(-c2ccc(F)cc2)c1N)C(F)(F)F)C(=O)c1c(Cl)cccc1Cl` (racemic) [Example 2 (racemic), 5-Amino-N-(2-{[[(2,6-dichlorophenyl)carbonyl](ethyl)amino]methyl}-3,3,3-trifluoro-2-hydroxypropyl)-1-(4-fluorophenyl)-1H-pyrazole-4-carboxamide] yielded an IC50 of no more than 0.316 µM. `Nc1c(C(=O)NCC(O)(CNC(=O)c2c(Cl)cccc2Cl)C(F)(F)F)cnn1-c1ccc(F)cc1` (racemic) [Example 3 (racemic), 5-Amino-N-[2-({[(2,6-dichlorophenyl)carbonyl]amino}methyl)-3,3,3-trifluoro-2-hydroxypropyl]-1-(4-fluorophenyl)-1H-pyrazole-4-carboxamide] gave an IC50 of no more than 0.316 µM. Compound `CCN(CC(O)(CNC(=O)c1cnn(-c2ccc(F)cc2)c1N)C(F)(F)F)C(=O)c1c(F)cccc1Cl` (racemic) [Example 4 (racemic), 5-Amino-N-(2-{[[(2-chloro-6-fluorophenyl)carbonyl](ethyl)amino]methyl}-3,3,3-trifluoro-2-hydroxypropyl)-1-(4-fluorophenyl)-1H-pyrazole-4-carboxamide] has an IC50 of no more than 0.316 µM. Work on `CCN(CC(O)(CNC(=O)c1cnn(-c2ccc(F)cc2)c1N)C(F)(F)F)C(=O)c1c(F)cccc1F` (racemic) [Example 5 (racemic), 5-Amino-N-(2-{[[(2,6-difluorophenyl)carbonyl](ethyl)amino]methyl}-3,3,3-trifluoro-2-hydroxypropyl)-1-(4-fluorophenyl)-1H-pyrazole-4-carboxamide] yielded an IC50 of no more than 0.316 µM. With `Nc1c(C(=O)NCC(O)(CNC(=O)c2c(F)cccc2Cl)C(F)(F)F)cnn1-c1ccc(F)cc1` (racemic) [Example 7 (racemic), 5-Amino-N-[2-({[(2-chloro-6-fluorophenyl)carbonyl]amino}methyl)-3,3,3-trifluoro-2-hydroxypropyl]-1-(4-fluorophenyl)-1H-pyrazole-4-carboxamide] the IC50 was no more than 0.316 µM. For `CN(CC(O)(CNC(=O)c1cnn(-c2ccc(F)cc2)c1N)C(F)(F)F)C(=O)c1c(F)cccc1F` (racemic) [Example 8 (racemic), 5-Amino-N-(2-{[[(2,6-difluorophenyl)carbonyl](methyl)amino]methyl}-3,3,3-trifluoro-2-hydroxypropyl)-1-(4-fluorophenyl)-1H-pyrazole-4-carboxamide], the IC50 was no more than 0.316 µM. `CN(CC(O)(CNC(=O)c1cnn(-c2ccc(F)cc2)c1N)C(F)(F)F)C(=O)c1c(F)cccc1Cl` (racemic) [Example 9 (racemic), 5-Amino-N-(2-{[[(2-chloro-6-fluorophenyl)carbonyl](methyl)amino]methyl}-3,3,3-trifluoro-2-hydroxypropyl)-1-(4-fluorophenyl)-1H-pyrazole-4-carboxamide] was tested, and the IC50 was no more than 0.316 µM. `CCN(CC(O)(CNC(=O)c1cnn(-c2ccc(F)cc2)c1N)C(F)(F)F)C(=O)c1ccccc1S(C)(=O)=O` (racemic) [Example 10 (racemic), 5-Amino-N-{2-[(ethyl{[2-(methylsulfonyl)phenyl]carbonyl}amino)methyl]-3,3,3-trifluoro-2-hydroxypropyl}-1-(4-fluorophenyl)-1H-pyrazole-4-carboxamide] was tested, and the IC50 was no more than 0.316 µM. `Nc1c(C(=O)NCC(O)(CNC(=O)c2c(Br)cccc2Br)C(F)(F)F)cnn1-c1ccc(F)cc1` (racemic) [Example 11 (racemic), 5-Amino-N-[2-({[(2,6-dibromophenyl)carbonyl]amino}methyl)-3,3,3-trifluoro-2-hydroxypropyl]-1-(4-fluorophenyl)-1H-pyrazole-4-carboxamide] gave an IC50 of no more than 0.316 µM. With `Nc1c(C(=O)NCC(O)(CNC(=O)c2c(Cl)cccc2Br)C(F)(F)F)cnn1-c1ccc(F)cc1` (racemic) [Example 12 (racemic), 5-Amino-N-[2-({[(2-bromo-6-chlorophenyl)carbonyl]amino}methyl)-3,3,3-trifluoro-2-hydroxypropyl]-1-(4-fluorophenyl)-1H-pyrazole-4-carboxamide] the IC50 was no more than 0.316 µM. For `Nc1c(C(=O)NCC(O)(CNC(=O)c2c(F)cccc2Br)C(F)(F)F)cnn1-c1ccc(F)cc1` (racemic) [Example 13 (racemic), 5-Amino-N-[2-({[(2-bromo-6-fluorophenyl)carbonyl]amino}methyl)-3,3,3-trifluoro-2-hydroxypropyl]-1-(4-fluorophenyl)-1H-pyrazole-4-carboxamide], the IC50 was no more than 0.316 µM. Compound `Nc1c(C(=O)NCC(O)(CNC(=O)c2c(Cl)cccc2OC(F)F)C(F)(F)F)cnn1-c1ccc(F)cc1` (racemic) [Example 14 (racemic), 5-Amino-N-(2-{[({2-chloro-6-[(difluoromethyl)oxy]phenyl}carbonyl)amino]methyl}-3,3,3-trifluoro-2-hydroxypropyl)-1-(4-fluorophenyl)-1H-pyrazole-4-carboxamide] has an IC50 of no more than 0.316 µM. For `Nc1c(C(=O)NCC(O)(CNC(=O)c2c(C(F)(F)F)cccc2C(F)(F)F)C(F)(F)F)cnn1-c1ccc(F)cc1` (racemic) [Example 15 (racemic), 5-amino-N-{2-[({[2,6-bis(trifluoromethyl)phenyl]carbonyl}amino)methyl]-3,3,3-trifluoro-2-hydroxypropyl}-1-(4-fluorophenyl)-1H-pyrazole-4-carboxamide], the IC50 was no more than 0.316 µM. `CN(CC(O)(CNC(=O)c1cnn(-c2ccc(F)cc2)c1N)C(F)(F)F)C(=O)c1c(Cl)cccc1Br` (racemic) [Example 16 (racemic), 5-amino-N-(2-{[[(2-bromo-6-chlorophenyl)carbonyl](methyl)amino]methyl}-3,3,3-trifluoro-2-hydroxypropyl)-1-(4-fluorophenyl)-1H-pyrazole-4-carboxamide] showed an IC50 of no more than 0.316 µM. For `Nc1c(C(=O)NCC(O)(CN(CCF)C(=O)c2c(F)cccc2F)C(F)(F)F)cnn1-c1ccc(F)cc1` (racemic) [Example 17 (racemic), 5-amino-N-(2-{[[(2,6-difluorophenyl)carbonyl](2-fluoroethyl)amino]methyl}-3,3,3-trifluoro-2-hydroxypropyl)-1-(4-fluorophenyl)-1H-pyrazole-4-carboxamide], the IC50 was no more than 0.316 µM. `Nc1c(C(=O)NCC(O)(CN(CCF)C(=O)c2c(F)cccc2C(F)(F)F)C(F)(F)F)cnn1-c1ccc(F)cc1` (racemic) [Example 18 (racemic), 5-amino-1-(4-fluorophenyl)-N-{3,3,3-trifluoro-2-[((2-fluoroethyl){[2-fluoro-6-(trifluoromethyl)phenyl]carbonyl}amino)methyl]-2-hydroxypropyl}-1H-pyrazole-4-carboxamide] showed an IC50 of no more than 0.316 µM. Compound `Nc1c(C(=O)NCC(O)(CNC(=O)c2c(F)cccc2C(F)(F)F)C(F)(F)F)cnn1-c1ccc(F)cc1` (racemic) [Example 19 (racemic), 5-amino-1-(4-fluorophenyl)-N-{3,3,3-trifluoro-2-[({[2-fluoro-6-(trifluoromethyl)phenyl]carbonyl}amino)methyl]-2-hydroxypropyl}-1H-pyrazole-4-carboxamide] has an IC50 of no more than 0.316 µM.
